Experiment in all cases: Proliferation inhibition of cancer cells (propidium iodide fluorescence)
What all share (format): cell-based, human

The test system of one assay is GXF 251 L. The settings on record: Homo sapiens, 96 h, GXF 251L cell line, 4 days, read-out: IC50 value. On the procedure:
(§1) Using various human cancer cells in vitro, the concentrations of the test compounds (A, B, C, D, E, F), which inhibit the proliferation of cancer cells by 50% (IC50) and 70% (IC70) were determined. Specifically, each cell line of bladder cancer (BXF 1218L and T-24), glioblastoma (CNXF 498NL), colic cancer (HCT-116 and HT-29), gastric cancer (GXF 251 L), head and neck cancer (HNXF 536L), non small cell lung cancer (LXF 1121L, LXF 289L, LXF 526L, LXF 529L, LXF 629L and H-460), mammary cancer (MAXF 401NL, MCF-7, MDA-231 and MDA-468), melanoma (MEXF 276L, MEXF 394NL, MEXF 462NL, MEXF 514L and MEXF 520L), ovary cancer (OVXF 1619L, OVXF 899L and OVCAR-3), pancreatic cancer (PAXF 1657L and PANC-1), prostate cancer (22Rv1, DU-145, LNCaP and PC3M), pleuramesothelioma (PXF 1752L), renal cancer (RXF 1781 L, RXF 393NL, RXF 486L and RXF 944L), and uterine cancer (UXF 1138L) is added to a 96-well microtiter plate at a density of 3.6-11.2x10^3 cells per well in RPMI-1640 medium containing 10% fetal calf serum and 0.1% gentamicin and incubated for 24 hours. After 24 hours RPMI-1640 medium containing 10% fetal calf serum and 0.1% gentamicin, together with a test compound, is added thereto. Then, this plate is incubated at 37°C for 4 days in a humidified atmosphere of air containing 5% CO2. Thereafter, the cell culture medium with or without drug was replaced by 200 µl of an aqueous PI solution (7 µg/ml propidium iodide). Applying a freeze thaw cycle to permeabilize intact cell walls, staining of DNA was achieved, and the fluorescence of each well was measured using the Cy-tofluor 4000 microplate reader (excitation 530 nm, emission 620 nm), giving a direct relationship to the total cell number. Proliferation inhibition is expressed as test versus untreated control (T/C-value [%]). IC50 and IC70 values were determined by plotting compound concentration versus cell viability.

The next assay relates to LXFL 529L. The settings on record: Homo sapiens, 96 h, LXFL 529L cell line, 4 days, read-out: IC50 value. On the procedure:
as §1

Another assay has as its system MAXF 401NL. As to conditions: Homo sapiens, 96 h, MAXF 401NL cell line, 4 days, read-out: IC50 value. On the procedure: as §1
For a further assay, the system named is MEXF 462NL. The settings on record: Homo sapiens, 96 h, MEXF 462NL cell line, 4 days, read-out: IC50 value. On the procedure:
as §1

A further assay concerns RXF 486L. As to conditions: Homo sapiens, 96 h, RXF 486L cell line, 4 days, read-out: IC50 value. On the procedure:
as §1

In the next assay the test system is UXF 1138L. The settings on record: Homo sapiens, 96 h, UXF 1138L cell line, 4 days, read-out: IC50 value. On the procedure: as §1

A word on the IC50: it is the midpoint of a concentration-inhibition curve.

Converted amounts (≈) assume the structure as drawn.

As for `CC1CC(O)C(O)C2(O1)OC1CC(=O)OC1C1=C2C(=O)c2c(O)cccc2C1=O` (stereo not drawn) [Compound A, deacetylgriseusin A, reference compound], the IC50 in the assay with GXF 251 L amounted to 3.06 µg/mL (≈ 7.62 µM); in the assay with LXFL 529L it was 8.95 µg/mL (≈ 22.2 µM); in the assay with MAXF 401NL, 0.345 µg/mL (≈ 0.857 µM); with MEXF 462NL, 1.13 µg/mL (≈ 2.8 µM); in the assay on RXF 486L it was 1.11 µg/mL (≈ 2.77 µM); in the assay with UXF 1138L it was 8.08 µg/mL (≈ 20.1 µM).
Take `COC(=O)CC1OC2(OC(C)CC(O)C2O)C2=C(C(=O)c3cccc(O)c3C2=O)C1O` (stereo not drawn) [Compound E, 4-hydroxy-deacetylgriseusin B methylester]: the IC50 in the assay on GXF 251 L came to 0.393 µg/mL (≈ 0.905 µM); with LXFL 529L, 3.87 µg/mL (≈ 8.9 µM); with MAXF 401NL, 0.046 µg/mL (≈ 0.106 µM); in the assay with MEXF 462NL, 0.094 µg/mL (≈ 0.216 µM); with RXF 486L, 0.288 µg/mL (≈ 0.663 µM); in the assay on UXF 1138L, 0.377 µg/mL (≈ 0.868 µM).
Turning to `COC(=O)CC1OC2(OC(C)CC(=O)C2O)C2=C(C(=O)c3cccc(O)c3C2=O)C1O` (stereo not drawn) [Compound F, 4'-dehydro-4-hydroxy-deacetylgriseusin B methylester], the IC50 with GXF 251 L amounted to 0.037 µg/mL (≈ 0.0856 µM); in the assay with LXFL 529L it was 0.158 µg/mL (≈ 0.365 µM); with MAXF 401NL, 0.034 µg/mL (≈ 0.0786 µM); with MEXF 462NL, 0.029 µg/mL (≈ 0.0671 µM); in the assay with RXF 486L, 0.053 µg/mL (≈ 0.123 µM); in the assay on UXF 1138L, 0.302 µg/mL (≈ 0.698 µM).

The values are drawn from patent EP1650209A1, “Griseusin derivatives and their use as antitumor agents” (Oncotest GmbH, priority 2004, dated 2006).
